In the NIST ThermoML archive (doi:10.1016/j.fluid.2017.12.010):

Test: xn = mol fraction of the nth substance listed
Details: Liquid, Vibrating tube method

CCCCCCCCCCCC [dodecane] + CCCCCCCCCC
Details | mass density [kg/m3]
303.31 K, 1000 kPa, x2 = 0.2297 | 739
303.32 K, 5000 kPa, x2 = 0.2297 | 742
303.32 K, 10000 kPa, x2 = 0.2297 | 745
303.33 K, 20000 kPa, x2 = 0.2297 | 752
303.33 K, 30000 kPa, x2 = 0.2297 | 759
303.34 K, 40000 kPa, x2 = 0.2297 | 765
303.35 K, 100 kPa, x2 = 0.2297 | 738
303.35 K, 60000 kPa, x2 = 0.2297 | 775
303.35 K, 80000 kPa, x2 = 0.2297 | 785
303.35 K, 100000 kPa, x2 = 0.2297 | 794
303.39 K, 100 kPa, x2 = 0.4436 | 734
303.39 K, 1000 kPa, x2 = 0.4436 | 735
303.39 K, 5000 kPa, x2 = 0.4436 | 738
303.39 K, 10000 kPa, x2 = 0.4436 | 742
303.41 K, 20000 kPa, x2 = 0.4436 | 749
303.41 K, 40000 kPa, x2 = 0.4436 | 761
303.41 K, 80000 kPa, x2 = 0.4436 | 782
303.41 K, 99990 kPa, x2 = 0.4436 | 791
303.42 K, 30000 kPa, x2 = 0.4436 | 755
303.42 K, 60000 kPa, x2 = 0.4436 | 772
303.43 K, 100 kPa, x2 = 0.6433 | 730
303.43 K, 1000 kPa, x2 = 0.6433 | 731
303.43 K, 20000 kPa, x2 = 0.6433 | 745
303.43 K, 30000 kPa, x2 = 0.6433 | 752
303.43 K, 40000 kPa, x2 = 0.6433 | 758
303.43 K, 60000 kPa, x2 = 0.6433 | 769
303.43 K, 80000 kPa, x2 = 0.6433 | 779
303.43 K, 100000 kPa, x2 = 0.6433 | 788
303.44 K, 5000 kPa, x2 = 0.6433 | 734
303.44 K, 10000 kPa, x2 = 0.6433 | 738
303.45 K, 100 kPa, x2 = 0.7841 | 727
303.45 K, 10000 kPa, x2 = 0.7841 | 735
303.45 K, 20000 kPa, x2 = 0.7841 | 742
303.45 K, 30000 kPa, x2 = 0.7841 | 749
303.45 K, 40000 kPa, x2 = 0.7841 | 755
303.45 K, 60000 kPa, x2 = 0.7841 | 766
303.45 K, 80000 kPa, x2 = 0.7841 | 776
303.45 K, 100000 kPa, x2 = 0.7841 | 785
303.46 K, 1000 kPa, x2 = 0.7841 | 728
303.47 K, 5000 kPa, x2 = 0.7841 | 731
312.89 K, 100 kPa, x2 = 0 | 736
312.89 K, 1000 kPa, x2 = 0 | 737
312.9 K, 5000 kPa, x2 = 0 | 740
312.9 K, 10000 kPa, x2 = 0 | 744
312.9 K, 20000 kPa, x2 = 0 | 751
312.9 K, 30000 kPa, x2 = 0 | 757
312.9 K, 40000 kPa, x2 = 0 | 763
312.9 K, 50000 kPa, x2 = 0 | 769
312.9 K, 60000 kPa, x2 = 0 | 774
312.9 K, 70000 kPa, x2 = 0 | 780
312.9 K, 80000 kPa, x2 = 0 | 784
312.9 K, 90000 kPa, x2 = 0 | 789
312.9 K, 100000 kPa, x2 = 0 | 793
313.23 K, 100 kPa, x2 = 0.2297 | 732
313.24 K, 1000 kPa, x2 = 0.2297 | 732
313.24 K, 5000 kPa, x2 = 0.2297 | 736
313.24 K, 10000 kPa, x2 = 0.2297 | 740
313.24 K, 20000 kPa, x2 = 0.2297 | 747
313.24 K, 30000 kPa, x2 = 0.2297 | 753
313.24 K, 40000 kPa, x2 = 0.2297 | 760
313.24 K, 60000 kPa, x2 = 0.2297 | 771
313.25 K, 80000 kPa, x2 = 0.2297 | 781
313.25 K, 100000 kPa, x2 = 0.2297 | 790
313.3 K, 30000 kPa, x2 = 0.4436 | 750
313.3 K, 40000 kPa, x2 = 0.4436 | 756
313.3 K, 100000 kPa, x2 = 0.4436 | 787
313.31 K, 100 kPa, x2 = 0.4436 | 728
313.31 K, 1000 kPa, x2 = 0.4436 | 729
313.31 K, 10000 kPa, x2 = 0.4436 | 736
313.31 K, 20000 kPa, x2 = 0.4436 | 743
313.31 K, 60000 kPa, x2 = 0.4436 | 767
313.31 K, 80000 kPa, x2 = 0.4436 | 778
313.32 K, 5000 kPa, x2 = 0.4436 | 732
313.36 K, 100 kPa, x2 = 0.6433 | 724
313.36 K, 1000 kPa, x2 = 0.6433 | 725
313.36 K, 10000 kPa, x2 = 0.6433 | 732
313.36 K, 20000 kPa, x2 = 0.6433 | 740
313.37 K, 100 kPa, x2 = 0.7841 | 721
313.37 K, 1000 kPa, x2 = 0.7841 | 722
313.37 K, 5000 kPa, x2 = 0.6433 | 728
313.37 K, 5000 kPa, x2 = 0.7841 | 725
313.37 K, 10000 kPa, x2 = 0.7841 | 729
313.37 K, 30000 kPa, x2 = 0.6433 | 746
313.37 K, 40000 kPa, x2 = 0.6433 | 753
313.37 K, 40000 kPa, x2 = 0.7841 | 750
313.37 K, 60000 kPa, x2 = 0.7841 | 762
313.37 K, 80000 kPa, x2 = 0.7841 | 772
313.38 K, 20000 kPa, x2 = 0.7841 | 737
313.38 K, 30000 kPa, x2 = 0.7841 | 744
313.38 K, 60000 kPa, x2 = 0.6433 | 764
313.38 K, 80000 kPa, x2 = 0.6433 | 774
313.38 K, 100000 kPa, x2 = 0.6433 | 784
313.38 K, 100000 kPa, x2 = 0.7841 | 781
322.83 K, 100 kPa, x2 = 0 | 727
322.83 K, 1000 kPa, x2 = 0 | 728
322.83 K, 5000 kPa, x2 = 0 | 732
322.83 K, 10000 kPa, x2 = 0 | 736
322.83 K, 20000 kPa, x2 = 0 | 743
322.83 K, 30000 kPa, x2 = 0 | 750
322.83 K, 40000 kPa, x2 = 0 | 756
322.83 K, 50000 kPa, x2 = 0 | 762
322.83 K, 60000 kPa, x2 = 0 | 768
322.83 K, 70000 kPa, x2 = 0 | 773
322.83 K, 80000 kPa, x2 = 0 | 778
322.83 K, 90000 kPa, x2 = 0 | 783
322.83 K, 100000 kPa, x2 = 0 | 787
323.08 K, 100 kPa, x2 = 0.2297 | 723
323.08 K, 1000 kPa, x2 = 0.2297 | 724
323.08 K, 5000 kPa, x2 = 0.2297 | 727
323.08 K, 10000 kPa, x2 = 0.2297 | 731
323.08 K, 20000 kPa, x2 = 0.2297 | 739
323.08 K, 30000 kPa, x2 = 0.2297 | 746
323.08 K, 40000 kPa, x2 = 0.2297 | 752
323.09 K, 100 kPa, x2 = 0.4436 | 719
323.09 K, 60000 kPa, x2 = 0.2297 | 764
323.09 K, 80000 kPa, x2 = 0.2297 | 774
323.09 K, 100010 kPa, x2 = 0.2297 | 784
323.1 K, 1000 kPa, x2 = 0.4436 | 720
323.1 K, 5000 kPa, x2 = 0.4436 | 724
